Test results published in article PMC11862611 (RSC Medicinal Chemistry, 2025).
Where a name gives a salt, the structure may show the parent alone. Read-outs that look alike come from different tables or passages of the source.

What was measured:
[1] = test system: L. major promastigotes (FV1) WT; assay: anti-promastigote assay, L. major (resazurin); type: cell-based; settings: Leishmania major
Protocol: 4.2.3.1. Anti-promastigote assays
L. major promastigotes (FV1) WT, PX and Δ LCB2 in Schneider’s insect medium (100 μL at 1 × 106 mL−1) were incubated in 96-well plates with compounds in triplicate (amphotericin B and cycloheximide were used as positive controls, and untreated parasites with 1% DMSO as a negative control) at 26 °C for 48 h.
Resazurin Solution (10 μL) was then added and the plate incubated at 26 °C for 4 h prior to measurement using a fluorescence plate reader (555 - 585 nm). EC50 values were calculated using sigmoidal regression analysis (GraphPad Prism). […]
(§1) well-1 in a 24-well plate with round cover slips and incubated for 24 h at 37 °C and 5% CO2. […]

[2] = test system: L. amazonensis promastigotes; assay: anti-promastigote assay, L. amazonensis (resazurin); type: cell-based; settings: Leishmania amazonensis
Protocol: 4.2.3.1. Anti-promastigote assays […]
Protocol 1: L. amazonensis promastigotes in Medium 199 (100 μL at 5 × 105 mL−1) were incubated in 96-well plates with compounds in triplicate (amphotericin B was used as a positive control, and untreated parasites with DMSO as a negative control) at 26 °C for 72 h. Resazurin Solution (10 μL) was then added and the plate incubated at 26 °C for 4 h prior to measurement using a fluorescence plate reader (555 - 585 nm). EC50 values were calculated using sigmoidal regression analysis (GraphPad Prism).
Protocol 2: Same procedure as above with the modification of a 48 h incubation time as opposed to 72 h and Leishmania amazonensis (MHOM/Br/75/JOSEFA) in Schneider’s insect medium in the place of Leishmania amazonensis (MHOM/Br/75/JOSEFA) in Medium 199. […]
as §1

L. majIPCS = molecular target: T1, L. majIPCS (Leishmania major, UniProt E9AFX2); assay: inhibition of microsomal enzyme preparation of L. majIPCS; type: biochemical; settings: for inhibition at 20 µM: read-out: LmjIPCS inhibition % at 20 µM ± SD
T1 construct: made in house
T1 sequence (E9AFX2 1-338): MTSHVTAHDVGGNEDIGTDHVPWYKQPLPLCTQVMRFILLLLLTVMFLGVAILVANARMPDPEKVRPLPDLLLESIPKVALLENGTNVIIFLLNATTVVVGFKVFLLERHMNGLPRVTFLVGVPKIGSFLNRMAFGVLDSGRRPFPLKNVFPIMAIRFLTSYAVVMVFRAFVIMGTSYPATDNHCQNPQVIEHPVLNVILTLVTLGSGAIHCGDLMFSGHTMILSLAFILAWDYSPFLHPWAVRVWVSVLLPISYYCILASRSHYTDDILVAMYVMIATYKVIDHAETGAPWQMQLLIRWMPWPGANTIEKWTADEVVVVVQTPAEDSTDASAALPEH
From the text: When tested against microsomal enzyme preparations of L. majIPCS[16] (Fig. 2, Table S1 ^†) the comparisons of pyrrolidine, tetrahydrofuran and cyclopentane derivatives 19, 21–23 supported earlier observations that all active compounds retained a basic nitrogen in the head group.[17] In general, whilst enzyme inhibitory activity was retained in a number of these analogues, much lower activity was observed against promastigote parasites. […] Speculating that this lower activity in promastigote parasite assays reflected a (membrane) transport issue, we then explored the corresponding ether derivative 27. Attempts to prepare this by acid catalysed ether formation failed and ultimately this was achieved through displacement of the corresponding benzylic chloride 25 (Scheme 3).
Fig. 2 Activity of a selection of simple amide and triazole linked CF analogues against a microsomal preparation of L. majIPCS and L. major promastigote parasites, respectively.

[3] = test system: L. major PX promastigotes; assay: on-target growth inhibition, add-back cell line (PX); type: cell-based, Leishmania major
[4] = test system: L. amazonensis GFP promastigotes; assay: mouse model of L. amazonensis infection (ear, IL dosing); type: in vivo, BALB/c mice; settings: 1.2 mg kg^−1 IL twice a week for 4 weeks
Protocol: Consequently, we used IL dosing for this experiment. To enable direct comparison with CF, the same treatment regimen (dose of 1.2 mg kg^−1via IL injection twice a week for 4 weeks starting on DPI) was used for both compounds.
A Weight variation of mice during 28 days of treatment. B Progression of lesion thickness over 28 day treatment period. C Representative photographs of the infected ear for each group taken after completion of treatment, D parasite burden was evaluated by LDA on 36 days post infection. […]
In vivo assays were conducted as previously reported 1. Two month old BALB/c female mice, weighing 20 - 25 g and of approximately the same age were used for the study. For infection of mice, stationary phase GFP L. amazonensis promastigotes were collected, washed and suspended in sterile PBS. A volume of 10 μl of sterile PBS containing 2 x 10^6 parasites was injected into the right ear. […]
Infected ear thicknesses were measured once or twice a week with a caliper gauge, and the lesion sizes were expressed as the difference between the thickness of infected and non-infected ear. On day 41 animals were sacrificed and the fluorescence measured (485 - 528 nm) and parasite load quantified using a limiting dilution assay (LDA).
Data on lesion progression were analysed for statistical significance by using the Dunnett test as part of the one-way ANOVA (GraphPad Prism 8 software). […]

[5] = test system: panel of neurotransmitter receptors; assay: radioligand displacement assay, whole panel; type: binding, human
Protocol: 4.2.3.6. Radioligand Binding Assay (Supplemental Figure S3)
These assays were run by Eurofins under contract to LifeArc FR095-0011887. A representative protocol describing the human histamine H2 receptor (antagonist radioligand) assay is shown below.12 Cell membrane homogenates (24 µg protein) are incubated for 120 min at 22°C with 0.075 nM [125I]APT in the absence or presence of the test compound in a buffer containing 50 mM Na2HPO4/KH2PO4 (pH […]
7.4) and 0.05% BSA. […] Following

[6] = promastigote parasites (Table 1), read-out: L.mj EC50
[7] = promastigote parasites (Table 1), read-out: L.amaz EC50
[8] = 48 h, read-out: L. major promastigote EC50
[9] = read-out: L. amaz promastigote EC50
[10] = promastigotes, 48 h, read-out: L. major promastigote EC50

Clc1ccc([C@H](OCCCN2CCCC2)c2ccccc2)cc1 [38o]
EC50 [1, 6]: 80 nM
EC50 [2, 7]: 100 nM

Clc1ccc(C(OCCC2CCCN2)c2ccccc2)cc1 (stereo not drawn) [compound 7]
IC50 (L. majIPCS): 6.26 µM
inhibition at 20 µM (L. majIPCS): 78.1 ± 12.5%
EC50 [1, 8]: 4100 nM

CN1CCC[C@@H]1CCOC(c1ccccc1)c1ccc(F)cc1 (stereo partly drawn) [compound 32]
EC50 [1, 8]: 2250 nM
EC50 [2, 9]: 1620 nM

CN1CCC[C@@H]1CCOC(c1ccccc1)c1ccc(Br)cc1 (stereo partly drawn) [compound 29]
IC50 (L. majIPCS): 3.21 µM
EC50 [1, 8]: 1360 nM

CN1CCC[C@@H]1CCOC(c1ccccc1)c1ccc(Cl)cc1 (stereo partly drawn) [compound 10]
IC50 (L. majIPCS): 4.13 µM
inhibition at 20 µM (L. majIPCS): 78.1 ± 9.7%
EC50 [1, 8]: 780 nM

C[C@@H]1CCCN1CCCO[C@H](c1ccccc1)c1ccc(Cl)cc1 [38m]
EC50 [1, 6]: 31 nM
EC50 [2, 7]: 42 nM

C[C@H]1CCCN1CCCCOC(c1ccccc1)c1ccc(Cl)cc1 (stereo partly drawn) [38g]
EC50 [1, 6]: 1210 nM

C[C@@H]1CCCN1CCO[C@@H](c1ccccc1)c1ccc(Cl)cc1 [38j]
EC50 ([1]; read-out: L.mj EC50): 11500 nM

COC(=O)[C@H]1CCCN1CCOC(c1ccccc1)c1ccc(Cl)cc1 (stereo partly drawn) [38c]
EC50 ([1]; read-out: L.mj EC50): 23800 nM
EC50 ([2]; read-out: L.amaz EC50): 17400 nM

CN1CCC[C@@H]1CCOC(c1ccc(F)cc1)c1ccc(F)cc1 [compound 33]
EC50 [1, 8]: 2870 nM
EC50 [2, 9]: 2740 nM

CN1CCC[C@H]1c1cn(C(c2ccccc2)c2ccc(Cl)cc2)nn1 (stereo partly drawn) [14a]
IC50 (L. majIPCS): 14.5 µM
inhibition at 20 µM (L. majIPCS; 20 µM, microsomal preparation): 60.6 ± 9.2%
EC50 [1, 10]: > 33000 nM

O=C(NCC1CCCN1)C(c1ccccc1)c1ccc(Cl)cc1 (stereo not drawn) [compound 19]
IC50 (L. majIPCS): 6.9 µM
inhibition at 20 µM (L. majIPCS; 20 µM, microsomal preparation): 81.2 ± 1.3%
EC50 [1, 10]: > 33000 nM

COc1ccc(C(OCC[C@H]2CCCN2C)c2ccccc2)cc1 (stereo partly drawn) [compound 30]
EC50 [1, 8]: 6830 nM
EC50 [2, 9]: 500 nM

CN1CCC[C@@H]1CCOC(c1ccccc1)c1ccccc1 [compound 28]
EC50 [1, 8]: 8440 nM
EC50 [2, 9]: 1170 nM

C[C@H]1CCCN1CCO[C@@H](c1ccccc1)c1ccc(Cl)cc1 [38i]
EC50 ([1]; read-out: L.mj EC50): 7050 nM

CN1CCC[C@@H]1CCO[C@](C)(c1ccccc1)c1ccc(Cl)cc1 [1a, clemastine fumarate, reference compound]
sensitivity in the add-back cell line (PX) [3]: Sensitivity was restored
lesion growth trends ([4]; 35 days post-infection): similar
parasitaemia (parasite burden by LDA) versus untreated group ([4]; LDA 36 days post infection): statistically significant reduction
binding profile across receptor panel [5]: activity against a broad representation of receptor sub-types

CC1(C)CCCN1CCCO[C@H](c1ccccc1)c1ccc(Cl)cc1 [38n]
EC50 [1, 6]: 27 nM
EC50 [2, 7]: 17 nM

CN1CCC[C@@H]1CCO[C@H](c1ccccc1)c1ccc(Cl)cc1 [compound 35]
EC50 [1, 8]: 130 nM
EC50 [2, 9]: 101 nM
binding profile across receptor panel [5]: activity against a broad representation of receptor sub-types

O=C(NCC1CCCO1)C(c1ccccc1)c1ccc(Cl)cc1 (stereo not drawn) [compound 22]
inhibition at 20 µM (L. majIPCS; 20 µM, microsomal preparation): 2.9 ± 1.4%

O=C(CC1CCCC1)NC(c1ccccc1)c1ccc(Cl)cc1 (stereo not drawn) [compound 23]
inhibition at 20 µM (L. majIPCS; 20 µM, microsomal preparation): -5.4 ± 2.3%

C[C@H]1CCCN1CCOC(c1ccccc1)c1ccc(Cl)cc1 (stereo partly drawn) [38a]
EC50 ([1]; read-out: L.mj EC50): 2050 nM
EC50 ([2]; read-out: L.amaz EC50): 3400 nM

CN1CCC[C@H]1CCOC(c1ccccc1)c1ccc(Cl)cc1 (stereo partly drawn) [compound 9]
IC50 (L. majIPCS): 4.45 µM
inhibition at 20 µM (L. majIPCS): 81.2 ± 10.6%
EC50 [1, 8]: 1690 nM

O=C(CC1CCCN1)NC(c1ccccc1)c1ccc(Cl)cc1 (stereo not drawn) [compound 21]
IC50 (L. majIPCS): 6.95 µM
inhibition at 20 µM (L. majIPCS; 20 µM, microsomal preparation): 82.7%
EC50 [1, 10]: > 33000 nM

C[C@@H]1CCCN1CCOC(c1ccccc1)c1ccc(Cl)cc1 (stereo partly drawn) [38b]
EC50 ([1]; read-out: L.mj EC50): 2650 nM
EC50 ([2]; read-out: L.amaz EC50): 4100 nM

CN(C)CCn1ncc2ccc(COC(c3ccccc3)c3ccc(Cl)cc3)cc21 (stereo not drawn) [compound 27]
IC50 (L. majIPCS): 4.72 µM
EC50 [1, 10]: > 5000 nM

COc1cccc(C(OCC[C@H]2CCCN2C)c2ccccc2)c1 (stereo partly drawn) [compound 31]
EC50 [1, 8]: 8440 nM
EC50 [2, 9]: 630 nM

Clc1ccc(C(OCCN2CCCC2)c2ccccc2)cc1 (stereo not drawn) [38f]
EC50 ([2]; read-out: L.amaz EC50): 3270 nM

COC[C@H]1CCCN1CCOC(c1ccccc1)c1ccc(Cl)cc1 (stereo partly drawn) [38e]
EC50 ([1]; read-out: L.mj EC50): 14400 nM
EC50 ([2]; read-out: L.amaz EC50): 12400 nM

OC[C@H]1CCCN1CCOC(c1ccccc1)c1ccc(Cl)cc1 (stereo partly drawn) [38d]
EC50 ([1]; read-out: L.mj EC50): 5880 nM
EC50 ([2]; read-out: L.amaz EC50): 3200 nM

C[C@@H]1CCCN1CCO[C@H](c1ccccc1)c1ccc(Cl)cc1 [38k]
EC50 ([1]; read-out: L.mj EC50): 1700 nM
EC50 ([2]; read-out: L.amaz EC50): 3200 nM

CN1CCCC1c1cn(C(c2ccccc2)c2ccc(Cl)cc2)nn1 (stereo not drawn) [14b]
IC50 (L. majIPCS): 8.49 µM
inhibition at 20 µM (L. majIPCS; 20 µM, microsomal preparation): 71 ± 9.7%
EC50 [1, 10]: > 33000 nM

C[C@H]1CCCN1CCCOC(c1ccccc1)c1ccc(Cl)cc1 (stereo partly drawn) [38h]
EC50 [1, 6]: 90 nM

CN(C)CCn1ncc2ccc(NC(=O)C(c3ccccc3)c3ccc(Cl)cc3)cc21 (stereo not drawn) [compound 24]
IC50 (L. majIPCS): 2.41 µM
inhibition at 20 µM (L. majIPCS; 20 µM, microsomal preparation): 90.2 ± 2.4%
EC50 [1, 10]: > 10000 nM

CN1CCC[C@@H]1CCO[C@@H](c1ccccc1)c1ccc(Cl)cc1 [compound 37]
EC50 [1, 8]: 1330 nM
EC50 [2, 9]: 1400 nM
